Measurements taken from ChEMBL document CHEMBL2424536, “Withanolides isolated from Withania somnifera with -glucosidase inhibition” (Med Chem Res, 2013).

Columns and labels:
[1] = (§1) Inhibition of Saccharomyces sp. alpha-glucosidase using p-nitrophenyl a-D-glucopyranoside as substrate by spectrophotometric analysis
Saccharomyces sp. [2] = assay: as §1
Saccharomyces sp. [3] = assay: Inhibition of Saccharomyces sp. alpha-glucosidase using p-nitrophenyl a-D-glucopyranoside as substrate at 100 ug/ml by spectrophotometric analysis

| IC50 ([1]; read-out: IC50) [µM] | IC50 [1] [µg/mL] | inhibition (Saccharomyces sp. [2]) | Imax (Saccharomyces sp. [3]) [%] | Structure (SMILES) |
| --- | --- | --- | --- | --- |
| 422 | – | – | – | OC[C@H]1NC[C@H](O)[C@@H](O)[C@@H]1O [DUVOGLUSTAT] |
| – | 38.2 | Dose-dependent effect | 96.1 | CC1=C(C)C(=O)O[C@@H]([C@](C)(O)C2=CC[C@@]3(O)[C@@H]4CC=C5CC=CC(=O)[C@]5(C)[C@H]4CC[C@]23C)C1 |
| – | 85.8 | Dose-dependent effect | 69.7 | CC1=C(C)C(=O)O[C@@H]([C@](C)(O)[C@H]2CC[C@H]3[C@@H]4CC=C5CC=CC(=O)[C@]5(C)[C@H]4CC[C@]23C)C1 |
| – | 40.65 | Dose-dependent effect | 94.3 | CC1=C(C)C(=O)O[C@@H]([C@](C)(O)[C@H]2CC[C@@H]3[C@]2(C)CC[C@H]2[C@@]3(O)[C@H]3O[C@H]3[C@@]3(O)CC=CC(=O)[C@]23C)C1 |
